{
  "source": "patent US6849598B1",
  "about": "“Therapeutic compositions comprising bactericidal/permeability-increasing (BPI) protein products” (XOMA, priority 1995, dated 2005)",
  "assay_type_in_all_cases": "cell-based",
  "key": {"E. faecium": {"system": "E. faecium", "assay": "Antibiotic susceptibility (MIC, Sensititre Trays) with rBPI21 poloxamer formulations; for susceptibility interpretation of MIC (superscript): key: clinically resistant (R); intermediate (I); susceptible (S)", "details": "for MIC: Enterococcus faecium, read-out: Minimum Inhibitory Concentration"}, "S. pneumoniae": {"system": "S. pneumoniae", "assay": "Bactericidal activity in water, TSB, CSMHB or serum, CFU after 24 hours (Example 5)", "details": "Control 3 × 10^5", "procedure": "(§1) The bactericidal activity of therapeutic compositions comprising BPI protein product and PLURONIC F68, P103, P104, P105 or P123 were evaluated against the S. aureus and A. baumannii organisms of Example 1, the S. pneumoniae organism of Example 3, an E. faecium organism (Microscan® ID No. 16866), and a strain of P. aeruginosa from the American Type Culture Collection (ATCC No. 19660). Therapeutic compositions were formulated by adding the appropriate amount of poloxamer to a stock solution of 2.2 mg/mL rBPI21 (5 mM sodium citrate, 150 mM NaCl, without poloxamer), to achieve the desired 0.2% (w/v) poloxamer concentration, followed by sterile filtration. Formulated product was stored at 2-8° C. for up to 6 months. Sterile stock solutions of poloxamer were made by dissolving the poloxamer paste in water for injection (WFI, Kendall-McGaw) with mixing to a 1-5% concentration (w/v) at room temperature, followed by sterile filtration. Assays were conducted in 96-well microtiter plates using WFI, tryptic soy broth (TSB, Remel, Lenexa, Kans.), Mueller-Hinton Broth plus Cations (CSMHB, Remel), or 40% pooled human serum in CSMHB (Sigma, St. Louis, Mo.) as growth media, according to the general procedure described above in Examples 2 and 3."}, "A. baumannii": {"system": "A. baumannii", "assay": "Bactericidal activity in water, TSB, CSMHB or serum, CFU after 24 hours (Example 5)", "procedure": "as §1"}, "S. aureus": {"system": "S. aureus", "assay": "Bactericidal activity in water, TSB, CSMHB or serum, CFU after 24 hours (Example 5)", "procedure": "as §1"}, "[1]": {"system": "E. faecium (Microscan® ID No. 16866)", "assay": "Bactericidal activity in water, TSB, CSMHB or serum, CFU after 24 hours (Example 5)", "procedure": "as §1"}, "[2]": {"details": "CSMHB, 16 μg/mL rBPI21 with F68"}, "[3]": {"details": "CSMHB, 16 μg/mL rBPI21 with P103"}, "[4]": {"details": "CSMHB, 16 μg/mL rBPI21 with P104"}, "[5]": {"details": "CSMHB, 16 μg/mL rBPI21 with P105"}, "[6]": {"details": "CSMHB, 16 μg/mL rBPI21 with P123"}, "[7]": {"details": "Serum, 16 μg/mL rBPI21 with F68"}, "[8]": {"details": "Serum, 16 μg/mL rBPI21 with P103"}, "[9]": {"details": "Serum, 16 μg/mL rBPI21 with P104"}, "[10]": {"details": "Serum, 16 μg/mL rBPI21 with P105"}, "[11]": {"details": "Serum, 16 μg/mL rBPI21 with P123"}},
  "note": "Read-outs that look alike come from different tables or passages of the source.",
  "data": [
    {"molecule": "O=C(N[C@H](CO)[C@H](O)c1ccc([N+](=O)[O-])cc1)C(Cl)Cl", "note": "[Chloramphenicol]", "values": [
      {"measurement": "susceptibility interpretation of MIC (superscript)", "setting": "E. faecium; [2]", "result": "S"},
      {"measurement": "susceptibility interpretation of MIC (superscript)", "setting": "E. faecium; [3]", "result": "S"},
      {"measurement": "susceptibility interpretation of MIC (superscript)", "setting": "E. faecium; [4]", "result": "S"},
      {"measurement": "susceptibility interpretation of MIC (superscript)", "setting": "E. faecium; [5]", "result": "S"},
      {"measurement": "susceptibility interpretation of MIC (superscript)", "setting": "E. faecium; [6]", "result": "S"},
      {"measurement": "susceptibility interpretation of MIC (superscript)", "setting": "E. faecium; CSMHB, Control (no BPI)", "result": "I"},
      {"measurement": "MIC", "setting": "E. faecium; [2]", "result": "< 4", "unit": "µg/mL"},
      {"measurement": "MIC", "setting": "E. faecium; [3]", "result": "< 4", "unit": "µg/mL"},
      {"measurement": "MIC", "setting": "E. faecium; [4]", "result": "< 4", "unit": "µg/mL"},
      {"measurement": "MIC", "setting": "E. faecium; [5]", "result": "< 4", "unit": "µg/mL"},
      {"measurement": "MIC", "setting": "E. faecium; [6]", "result": "< 4", "unit": "µg/mL"},
      {"measurement": "MIC", "setting": "E. faecium; CSMHB, Control (no BPI)", "result": 16, "unit": "µg/mL"},
      {"measurement": "MIC", "setting": "E. faecium; [7]", "result": 8, "unit": "µg/mL"},
      {"measurement": "MIC", "setting": "E. faecium; [8]", "result": 8, "unit": "µg/mL"},
      {"measurement": "MIC", "setting": "E. faecium; [9]", "result": 8, "unit": "µg/mL"},
      {"measurement": "MIC", "setting": "E. faecium; [10]", "result": 8, "unit": "µg/mL"},
      {"measurement": "MIC", "setting": "E. faecium; [11]", "result": 8, "unit": "µg/mL"},
      {"measurement": "MIC", "setting": "E. faecium; Serum, Control (no BPI)", "result": 8, "unit": "µg/mL"},
      {"measurement": "susceptibility interpretation of MIC (superscript)", "setting": "E. faecium; [7]", "result": "S"},
      {"measurement": "susceptibility interpretation of MIC (superscript)", "setting": "E. faecium; [8]", "result": "S"},
      {"measurement": "susceptibility interpretation of MIC (superscript)", "setting": "E. faecium; [9]", "result": "S"},
      {"measurement": "susceptibility interpretation of MIC (superscript)", "setting": "E. faecium; [10]", "result": "S"},
      {"measurement": "susceptibility interpretation of MIC (superscript)", "setting": "E. faecium; [11]", "result": "S"},
      {"measurement": "susceptibility interpretation of MIC (superscript)", "setting": "E. faecium; Serum, Control (no BPI)", "result": "S"}
    ]},
    {"molecule": "rBPI21: expression product of DNA encoding amino acid 1 to approximately 193 or 199 of BPI holoprotein, cysteine 132 substituted with alanine (protein, UniProt P17213 32-224, looked up, variant C132A) VNPGVVVRISQKGLDYASQQGTAALQKELKRIKIPDYSDSFKIKHLGKGHYSFYSMDIREFQLPSSQISMVPNVGLKFSISNANIKISGKWKAQKRFLKMSGNFDLSIEGMSISADLKLGSNPTSGKPTITASSCSSHINSVHVHISKSKVGWLIQLFHKKIESALRNKMNSQVCEKVTNSVSSELQPYFQTL", "values": [
      {"measurement": "colony forming units after 24 hours of incubation", "setting": "S. pneumoniae", "result": "5 × 10^4"},
      {"measurement": "colony forming units after 24 hours of incubation", "setting": "A. baumannii; Serum (40% pooled human serum in CSMHB), Control 2 × 10^5", "result": "2 × 10^5"},
      {"measurement": "colony forming units after 24 hours of incubation", "setting": "A. baumannii; TSB, Control 3 × 10^6", "result": "6 × 10^2"},
      {"measurement": "colony forming units after 24 hours of incubation", "setting": "A. baumannii; Water, Control 2 × 10^6", "result": "<100"},
      {"measurement": "colony forming units after 24 hours of incubation", "setting": "S. aureus; Serum (40% pooled human serum in CSMHB), Control 4.2 × 10^5", "result": ">1 × 10^5"},
      {"measurement": "colony forming units after 24 hours of incubation", "setting": "S. aureus; TSB, Control 5.4 × 10^5", "result": "5.7 × 10^5"},
      {"measurement": "colony forming units after 24 hours of incubation", "setting": "S. aureus; Water, Control 8.2 × 10^5", "result": "3.2 × 10^4"},
      {"measurement": "colony forming units after 24 hours of incubation", "setting": "[1]; TSB, Control 5 × 10^5", "result": "5 × 10^5"},
      {"measurement": "colony forming units after 24 hours of incubation", "setting": "[1]; Water, Control 4 × 10^5", "result": 100}
    ]}
  ]
}
